Test results from US20230383292A1, “TARGETING XIST AND RNA METHYLATION FOR X REACTIVATION THERAPY” (The General Hospital Corporation, priority 2020, published 2023).

Tested on: human XIST transcript
Assay: XIST knock down by XIST ASOs (Table 1)
Type: cell-based
Set-up: ASO conc at max KD: unit not given here
Settings: for % Max KD: XIST knock down, cells treated for 72 hrs with XIST ASO; for ASO conc at max KD: concentration of XIST ASO giving max KD, 72 hrs
Source text: The methods include administering an inhibitor of an XIST RNA itself, e.g., an inhibitory nucleic acid targeting XIST RNA. Although in typical usage XIST refers to the human sequence and XIST to the mouse sequence, in the present application the terms are used interchangeably. The human XIST sequence is available in the ensemble database at ENSG00000229807; it is present on Chromosome X at 73,820,651-73,852,753 reverse strand (Human GRCh38.p2). The sequences of exons 1-6 are shown in SEQ ID NOs:73-79 (see FIG. 2); XIST exons correspond to 601-11972 (exon 1); 15851-15914 (exon 2); 19593-20116 (exon 3); 21957-21984 (exon 4); 22080-22288 (exon 5); and 23887-33304 (exon 6). […] The inhibitory nucleic acid targeting XIST RNA can be any inhibitory nucleic acid as described herein, and can include modifications described herein or known in the art. In some embodiments, the inhibitory nucleic acid is an antisense oligonucleotide (ASO) that targets a sequence in XIST RNA, e.g., a sequence within an XIST exon as shown in SEQ ID NO:1-45 or within the RNA sequence as set forth in NR_001564.2, preferably wherein the ASO comprises a sequence as shown in Table 1. In some embodiments, the inhibitory nucleic includes at least one locked nucleotide, e.g., is a locked nucleic acid (LNA). Table 1 provides a list of ASOs that have more than 80% XIST knock down when cells are treated for 72 hrs with the below XIST ASOs.

Substance | % Max KD | ASO conc at max KD
ASO 1A: XIST antisense oligonucleotide TAGTTAGCACTCCTGCTGCT, SEQ ID NO 7 (listed as DNA, chemistry not given here) | 98% | 20
ASO 1B: XIST antisense oligonucleotide GCCTGCCATATTGTCCCTGC, SEQ ID NO 14 (listed as DNA, chemistry not given here) | 96% | 20
ASO 1C: XIST antisense oligonucleotide TGAGGCACCAATACAGAGGA, SEQ ID NO 18 (listed as DNA, chemistry not given here) | 95% | 20
ASO 1D: XIST antisense oligonucleotide TCAGACTGTATGACTGACAT, SEQ ID NO 8 (listed as DNA, chemistry not given here) | 98% | 20
ASO 1E: XIST antisense oligonucleotide GAATTCCTCTTCTGCCACCT, SEQ ID NO 28 (listed as DNA, chemistry not given here) | 91% | 20
ASO 1F: XIST antisense oligonucleotide TTTAGCTCATGCAATGCACA, SEQ ID NO 9 (listed as DNA, chemistry not given here) | 98% | 20
ASO 1G: XIST antisense oligonucleotide CTGAGATCACAGACAAATGG, SEQ ID NO 19 (listed as DNA, chemistry not given here) | 95% | 20
ASO 1P: XIST antisense oligonucleotide TAGCTCATGCAATGCACATG, SEQ ID NO 2 (listed as DNA, chemistry not given here) | 99% | 100
ASO 1R: XIST antisense oligonucleotide CTGTGACTACAGAAGCAATG, SEQ ID NO 22 (listed as DNA, chemistry not given here) | 94% | 100
ASO 1S: XIST antisense oligonucleotide CAGAAACCCAAGTCTAATTG, SEQ ID NO 23 (listed as DNA, chemistry not given here) | 94% | 20
ASO 1T: XIST antisense oligonucleotide AGGATGAACCATGTGGTGAT, SEQ ID NO 24 (listed as DNA, chemistry not given here) | 93% | 20
ASO 1U: XIST antisense oligonucleotide CTTACAACTGTGCACCTTGA, SEQ ID NO 15 (listed as DNA, chemistry not given here) | 96% | 100
ASO 1V: XIST antisense oligonucleotide AGGACCTTATTCACATGGAA, SEQ ID NO 10 (listed as DNA, chemistry not given here) | 98% | 20
ASO 1W: XIST antisense oligonucleotide CTTAAGTAGTAGGTACTTCC, SEQ ID NO 3 (listed as DNA, chemistry not given here) | 99% | 20
ASO 1X: XIST antisense oligonucleotide ACTCAGCAGCAATGGCAAAG, SEQ ID NO 29 (listed as DNA, chemistry not given here) | 89% | 100
ASO 3P: XIST antisense oligonucleotide TAGATTAGCTGGAGCTTGGC, SEQ ID NO 4 (listed as DNA, chemistry not given here) | 99% | 100
ASO 4A: XIST antisense oligonucleotide GGTTGTTGCCCAGTGGTAGT, SEQ ID NO 35 (listed as DNA, chemistry not given here) | 84% | 20
ASO 4B: XIST antisense oligonucleotide CCAGGAAAGTATCTTGACAG, SEQ ID NO 32 (listed as DNA, chemistry not given here) | 88% | 100
ASO 4P: XIST antisense oligonucleotide GTTGTTGCCCAGTGGTAGTG, SEQ ID NO 33 (listed as DNA, chemistry not given here) | 88% | 100
ASO 5A: XIST antisense oligonucleotide CAAATTTCTTGGACCTGCTG, SEQ ID NO 16 (listed as DNA, chemistry not given here) | 96% | 20
ASO 5B: XIST antisense oligonucleotide TTTCTTGGACCTGCTGAAGA, SEQ ID NO 20 (listed as DNA, chemistry not given here) | 95% | 20
ASO 5P: XIST antisense oligonucleotide GTTCAAATTTCTTGGACCTG, SEQ ID NO 34 (listed as DNA, chemistry not given here) | 88% | 20
ASO 5Q: XIST antisense oligonucleotide CAGATAGGAACAATGAAGAG, SEQ ID NO 30 (listed as DNA, chemistry not given here) | 89% | 100
ASO 6A: XIST antisense oligonucleotide TATGGCCCACAGTCTAAAGT, SEQ ID NO 1 (listed as DNA, chemistry not given here) | 99.3% | 20
ASO 6B: XIST antisense oligonucleotide AGAAGTCTGGCACATCTGTG, SEQ ID NO 11 (listed as DNA, chemistry not given here) | 98% | 100
ASO 6C: XIST antisense oligonucleotide TTGGCCTTGTGTCACAAGTC, SEQ ID NO 12 (listed as DNA, chemistry not given here) | 97% | 20
ASO 6D: XIST antisense oligonucleotide TCAAGACTGGCCCAGGCATA, SEQ ID NO 17 (listed as DNA, chemistry not given here) | 96% | 20
ASO 6E: XIST antisense oligonucleotide AGTTCAGGCTGTCCCCTTGG, SEQ ID NO 26 (LNA gapmer with DNA gap, wing lengths and linkages not given here) | 92% | 20
